Measured values taken from patent US20080312192A1, “Diaryl Urea Derivatives in the Treatment of Protein Kinase Dependent Diseases” (priority 2003, published 2008).

These compounds were tested against T1, RET (Homo sapiens, UniProt P07949) (assay: RET kinase inhibition (33P incorporation into poly(Glu,Tyr), GST-wtRET or GST-RET-Men2B)).
T1 construct: expresses the amino acid region 658-1072 (Swiss prot No. Q9BTB0); made in house; host or cells: Sf9 insect cells (baculovirus, vector pFB-GSTX3)
T1 sequence (P07949 658-1072 isoform P07949-2): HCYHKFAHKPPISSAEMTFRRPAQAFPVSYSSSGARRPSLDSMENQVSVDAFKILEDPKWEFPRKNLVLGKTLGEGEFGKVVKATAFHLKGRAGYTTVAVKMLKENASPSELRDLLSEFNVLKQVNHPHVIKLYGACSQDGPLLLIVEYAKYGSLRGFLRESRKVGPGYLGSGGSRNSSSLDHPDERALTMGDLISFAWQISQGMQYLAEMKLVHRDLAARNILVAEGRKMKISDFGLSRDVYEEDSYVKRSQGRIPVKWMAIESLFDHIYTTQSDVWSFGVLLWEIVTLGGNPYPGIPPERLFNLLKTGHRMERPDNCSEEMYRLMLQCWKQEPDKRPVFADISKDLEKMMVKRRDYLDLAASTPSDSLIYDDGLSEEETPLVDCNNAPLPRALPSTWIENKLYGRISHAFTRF
Type: biochemical
Experimental: RET kinase inhibition is determined as follows:
The coding sequence for the cytoplasmic domain of wtRET is amplified by PCR from a cDNA library using specific primers. RET-Men2B is generated through site-directed mutagenesis resulting in the M918T mutation. The amplified DNA fragments and the pFB-GSTX3 vector are made compatible for ligation by digestion with SalI and KpnI. Ligation of these DNA fragments results in the baculovirus donor plasmids […] and pFB-GX3-RET-Men2B, respectively.
Production of virus: The baculovirus donor plasmids containing the kinase domains are transfected into the DH10Bac cell line (GIBCO) and the transfected cells are plated on selective agar plates. Colonies without insertion of the fusion sequence into the viral genome (carried by the bacteria) are blue. Single, white colonies are picked and viral DNA (bacmid) is isolated from the bacteria by standard plasmid purification procedures. Sf9 cells or Sf21 cells (American Type Culture Collection) are then transfected in 25 cm^2 flasks with the viral DNA using Cellfectin reagent.
Protein expression in Sf9 cells: Virus-containing media is collected from the transfected cell culture and used for infection to increase its titer. Virus-containing media obtained after two rounds of infection is used for large-scale protein expression. For large-scale protein expression 100 cm^2 round tissue culture plates are seeded with 5×10^7 cells/plate and infected with 1 mL of virus-containing media (approximately 5 MOIs). After 3 days, the cells are scraped off the plate and centrifuged at 500 rpm for 5 minutes. Cell pellets from 10-20, 100 cm^2 plates are re-suspended in 50 mL of ice-cold lysis buffer (25 mM Tris-HCl, pH 7.5, 2 mM EDTA, 1% NP-40, 1 mM DTT, 1 mM PMSF). The cells are stirred on ice for 15 minutes and then centrifuged at 5,000 rpms for 20 minutes.
Purification of GST-tagged proteins: The centrifuged cell lysate is loaded onto a 2 mL glutathione-sepharose column (Pharmacia) and washed 3× with 10 mL of 25 mM Tris-HCl, pH 7.5, 2 mM EDTA, 1 mM DTT, 200 mM NaCl. The GST-tagged proteins are then eluted by 10 applications (1 mL each) of 25 mM Tris-HCl, pH 7.5, 10 mM reduced-glutathione, 100 mM NaCl, 1 mM DTT, 10% glycerol and stored at −70° C.
Measure of enzyme activity: Tyrosine protein kinase assays with either purified GST-wtRET or GST-RET-Men2B protein are carried out in a final volume of 30 μL containing 15 ng of either GST-RET or GST-RET-Men2B protein, 20 mM Tris-HCl, pH 7.5, 1 mM MnCl2, 10 mM MgCl2, 1 mM DTT, 3 μg/mL poly(Glu, Tyr) 4:1, 1% DMSO, 2.0 μM ATP (γ-[^33P]-ATP 0.1 μCi). The activity is assayed in the presence or absence of inhibitors, by measuring the incorporation of ^33P from [γ^33P] ATP into poly(Glu, Tyr) 4:1. […] Subsequently, 40 μL of the reaction mixture are transferred onto Immobilon-PVDF membrane (Millipore) previously soaked for 5 minutes with methanol, rinsed with water, then soaked for 5 minutes with 0.5% H3PO4 and mounted on vacuum manifold with disconnected vacuum source. After spotting all samples, vacuum is connected and each well rinsed with 200 μL 0.5% H3PO4. Membranes are removed and washed 4× on a shaker with 1.0% H3PO4, once with ethanol. Membranes are counted after drying at ambient temperature, mounting in Packard TopCount 96-well frame, and addition of 10 μl/well of Microscint™ (Packard). […] One unit of protein kinase activity is defined as 1 nmole of ^33P transferred from [γ^33P] ATP to the substrate protein/minute/mg of protein at 37° C.

**Q.** For `Nc1cc(Oc2ccc(NC(=O)Nc3cc(CN4CCC4)cc(C(F)(F)F)c3)cc2)ncn1` [Example 4, N-[4-(6-Amino-pyrimidin-4-yloxy)-phenyl]-N′-(3-azetidin-1-ylmethyl-5-trifluoromethyl-phenyl)-urea], which IC50 is on record?
**A.** 83 nM

**Q.** `CNc1cc(Oc2ccc(NC(=O)Nc3cc(CN4CCN(C(C)C)CC4)cc(C(F)(F)F)c3)cc2)ncn1` [Example 6, N-[4-(6-Methylamino-pyrimidin-4-yloxy)-phenyl]-N′-[3-(4-isopropylpiperazin-1-ylmethyl)-5-trifluoromethyl-phenyl]-urea] was tested. Which IC50 did it give?
**A.** 960 nM

**Q.** For `CC(C)N1CCN(Cc2ccc(NC(=O)Nc3ccc(Oc4cc(N)ncn4)cc3)cc2C(F)(F)F)CC1` [Example 19, N-[4-(6-Amino-pyrimidin-4-yloxy)-phenyl]-N′-[4-(4-isopropylpiperazin-1-ylmethyl)-3-trifluoromethyl-phenyl]-urea], which IC50 is on record?
**A.** 550 nM

**Q.** With `CC(C)(C)N1CCN(Cc2ccc(NC(=O)Nc3ccc(Oc4ccnc(N)n4)cc3)cc2C(F)(F)F)CC1` [Example 50] as the compound, how does the IC50 read?
**A.** 560 nM

**Q.** With `Cc1ncn(Cc2ccc(NC(=O)Nc3ccc(Oc4ccnc(N)n4)cc3)cc2C(F)(F)F)c1C` [Example 51a.1, 1-[4-(2-Amino-pyrimidin-4-yloxy)-phenyl]-3-(4-(4,5-dimethyl-imidazol-1-ylmethyl)-3-trifluoromethyl-phenyl]-urea] as the compound, how does the IC50 read?
**A.** 850 nM

**Q.** Which IC50 does the source give for `CN1CCN(Cc2ccc(NC(=O)Nc3ccc(Oc4ccnc(N)n4)cc3)cc2C(F)(F)F)CC1` [Example 52a, 1-[4-(2-amino-pyrimidin-4-yloxy)-phenyl]-3-[4-(4-methylpiperazin-1-ylmethyl)-3-trifluoromethyl-phenyl]-urea] here?
**A.** 180 nM

**Q.** With `CCN1CCN(Cc2ccc(NC(=O)Nc3ccc(Oc4ccnc(N)n4)cc3)cc2C(F)(F)F)CC1` [Example 52c, 1-[4-(2-Amino-pyrimidin-4-yloxy)-phenyl]-3-[4-(4-ethyl-piperazin-1-ylmethyl)-3-trifluoromethyl-phenyl]-urea] as the compound, how does the IC50 read?
**A.** 310 nM

**Q.** For `CNc1nccc(Oc2ccc(NC(=O)Nc3cc(N4CCN(C)CC4)cc(C(F)(F)F)c3)cc2)n1` [Example 53b, 1-[4-(2-Methylamino-pyrimidin-4-yloxy)-phenyl]-3-[3-(4-methyl-piperazin-1-yl)-5-trifluoromethyl-phenyl]-urea], which IC50 is on record?
**A.** 450 nM

**Q.** Which IC50 does the source give for `CNc1nccc(Oc2ccc(NC(=O)Nc3ccc(N4CCN(C)CC4)c(C(F)(F)F)c3)cc2)n1` [Example 53d, 1-[4-(2-Methylamino-pyrimidin-4-yloxy)-phenyl]-3-[4-(4-methyl-piperazin-1-yl)-3-trifluoromethyl-phenyl]-urea] here?
**A.** 450 nM
